One assay concerns the target T1, FLK-1 receptor (Mus musculus, UniProt P35918).
T1 construct: expressed in transfected cells; host or cells: NIH3T3 C7#3 cells
Put plainly: FLK-1 ELISA (kinase activity of the FLK-1 receptor in cells engineered to express Flk-1). It counts as cell-based. The conditions noted are these: NIH3T3 C7#3 cells (FLK-1 expressing), VEGF stimulated. How it is done: An ELISA assay is conducted to measure the kinase activity of the FLK-1 receptor and more specifically, the inhibition or activation of TK activity on the FLK-1 receptor. Specifically, the following assay can be conducted to measure kinase activity of the FLK-1 receptor in cells genetically engineered to express Flk-1.
Materials. The following reagents and supplies are used: • a. Corning 96-well ELISA plates (Corning Catalog No. 25805-96); • b. Cappel goat anti-rabbit IgG (catalog no. 55641); • c. PBS (Gibco Catalog No. 450-1300EB); • d. TBSW Buffer (50 mM Tris (pH 7.2), 150 mM NaCl and 0.1% Tween-20); • e. Ethanolamine stock (10% ethanolamine (pH 7.0), stored at 4° C.); • f. HNTG buffer (20 mM HEPES buffer (pH 7.5), 150 mM NaCl, 0.2% Triton X-100, and 10% glycerol); • g. EDTA (0.5 M (pH 7.0) as a 100× stock); • h. Sodium orthovanadate (0.5 M as a 100× stock); • i. Sodium pyrophosphate (0.2 M as a 100× stock); • j. NUNC 96 well V bottom polypropylene plates (Applied Scientific Catalog No. AS-72092); • k. NIH3T3 C7#3 Cells (FLK-1 expressing cells); • l. DMEM with 1× high glucose L-Glutamine (catalog No. 11965-050); • m. FBS, Gibco (catalog no. 16000-028); • n. L-glutamine, Gibco (catalog no. 25030-016); • o. VEGF, PeproTech, Inc. (catalog no. 100-20)(kept as 1 μg/100 μL stock in Milli-Q dH2O and stored at −20° C.; • p. Affinity purified anti-FLK-1 antiserum; • q. UB40 monoclonal antibody specific for phosphotyrosine (see, Fendley, et al., 1990, Cancer Research50:1550-1558); • r. EIA grade Goat anti-mouse IgG-POD (BioRad catalog no. 172-1011); • s. 2,2-azino-bis(3-ethylbenz-thiazoline-6-sulfonic acid (ABTS) solution (100 mM citric acid (anhydrous), 250 mM Na2HPO4 (pH 4.0), 0.5 mg/mL ABTS (Sigma catalog no. A-1888)), solution should be stored in dark at 4° C. until ready for use; • t. H2O2 (30% solution) (Fisher catalog no. H325); • u. ABTS/H2O2 (15mL ABTS solution, 2 μL H2O2) prepared 5 minutes before use and left at room temperature; • v. 0.2 M HCl stock in H2O; • w. dimethylsulfoxide (100%)(Sigma Catalog No. D-8418); and • y. Trypsin-EDTA (Gibco BRL Catalog No. 25200-049).
Protocol. The following protocol can be used for conducting the assay:
1. Coat Corning 96-well ELISA plates with 1.0 μg per well Cappel Anti-rabbit IgG antibody in 0.1 M Na2CO3 pH 9.6. Bring final volume to 150 μL per well. Coat plates overnight at 4° C. Plates can be kept up to two weeks when stored at 4° C.
2. Grow cells in Growth media (DMEM, supplemented with 2.0 mM L-Glutamine, 10% FBS) in suitable culture dishes until confluent at 37° C., 5% CO2.
3. Harvest cells by trypsinization and seed in Corning 25850 polystyrene 96-well round bottom cell plates, 25.000 cells/well in 200 μL of growth media.
4. Grow cells at least one day at 37° C., 5% CO2.
5. Wash cells with D-PBS 1×.
6. […]

In the next assay the target is T2, human EGF-R (Homo sapiens, UniProt P00533).
T2 construct: expressed in transfected cells; host or cells: NIH 3T3/C7 cell line
T2 sequence (P00533 25-1210): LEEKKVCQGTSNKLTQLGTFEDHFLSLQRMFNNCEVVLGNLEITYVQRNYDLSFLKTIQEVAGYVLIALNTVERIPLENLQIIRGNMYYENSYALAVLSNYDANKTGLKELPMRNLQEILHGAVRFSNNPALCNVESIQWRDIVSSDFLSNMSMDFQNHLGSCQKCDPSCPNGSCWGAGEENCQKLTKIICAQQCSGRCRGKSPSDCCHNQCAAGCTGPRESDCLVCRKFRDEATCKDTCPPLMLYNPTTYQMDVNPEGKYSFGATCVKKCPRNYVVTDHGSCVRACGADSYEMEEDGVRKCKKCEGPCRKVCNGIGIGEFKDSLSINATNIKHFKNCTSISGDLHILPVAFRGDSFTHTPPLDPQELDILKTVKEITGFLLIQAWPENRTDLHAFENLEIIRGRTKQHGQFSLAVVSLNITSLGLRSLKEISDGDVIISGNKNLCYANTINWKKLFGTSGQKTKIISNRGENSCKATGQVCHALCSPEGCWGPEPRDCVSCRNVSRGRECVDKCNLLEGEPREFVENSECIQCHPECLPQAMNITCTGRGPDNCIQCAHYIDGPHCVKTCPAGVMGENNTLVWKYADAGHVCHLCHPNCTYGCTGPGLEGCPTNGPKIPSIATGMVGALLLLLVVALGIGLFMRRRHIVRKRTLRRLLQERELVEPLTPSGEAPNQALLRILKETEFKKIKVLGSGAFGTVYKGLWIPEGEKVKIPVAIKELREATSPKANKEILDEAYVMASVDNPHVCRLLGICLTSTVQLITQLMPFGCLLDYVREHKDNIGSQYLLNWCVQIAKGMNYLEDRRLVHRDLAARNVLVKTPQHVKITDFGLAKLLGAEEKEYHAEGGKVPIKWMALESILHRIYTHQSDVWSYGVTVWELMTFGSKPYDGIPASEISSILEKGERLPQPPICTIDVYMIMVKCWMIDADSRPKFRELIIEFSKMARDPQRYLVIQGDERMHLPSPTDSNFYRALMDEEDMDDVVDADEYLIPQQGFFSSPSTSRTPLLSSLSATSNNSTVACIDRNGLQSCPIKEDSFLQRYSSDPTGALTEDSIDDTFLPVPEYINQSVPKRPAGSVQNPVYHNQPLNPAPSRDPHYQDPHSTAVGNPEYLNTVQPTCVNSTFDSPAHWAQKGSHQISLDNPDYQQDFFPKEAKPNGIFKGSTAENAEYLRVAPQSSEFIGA
The assay is described as follows: EGF Receptor ELISA (EGF receptor kinase activity in cells engineered to express human EGF-R). Type of assay: cell-based. The conditions noted are these: NIH 3T3/C7 cell line, EGF stimulated. As to the method: EGF Receptor kinase activity in cells genetically engineered to express human EGF-R can be measured as described below:
Materiala and Reagents. The following materials and reagents are used
a. EGF Ligand: stock concentration=16.5 μM; EGF 201, TOYOBO, Co., Ltd. Japan.
b. 05-101 (UBI) (a monoclonal antibody recognizing an EGFR extracellular domain).
C. Anti-phosphotyosine antibody (anti-Ptyr) (polyclonal).
d. Detection antibody: Goat anti-rabbit lgG horse radish peroxidase conjugate, TAGO, Inc., Burlingame, Calif.
h. Stock reagents of: • EDTA 100 mM pR 7.0 • Na3VO4 0.5 M • Na4(P2O7) 0.2 M
Procedure. The following protocol is used:
1. Coat ELISA plates (Corning, 96 well, Cat. #25805-96) with 05-101 antibody at 0.5 μg per well in PBS, 150 μL final volume/well, and store overnight at 4° C. Coated plates are good for up to 10 days when stored at 4° C.
2. On day of use, remove coating buffer and replace with blocking buffer (5% Carnation Instant NonFat Dry Milk in PBS). Incubate the plate, shaking, at room temperature (about 23° C. to 25° C) for 30 minutes. Just prior to use, remove blocking buffer and wash plate 4 times with TBST buffer.
1. NIH 3T3/C7 cell line (Honegger, et al., Cell 51:199-209, 1987) can be use for this assay.
2. Choose dishes having 80-90% confluence for the experiment. Trypsinize cells and stop reaction by adding 10% CS DMEM medium. Suspend cells in DMEM medium (10% CS DMEM medium) and centrifuge once at 1000 rpm at room temperature for 5 minutes.
3. Resuspend cells in seeding medium (DMEM, 0.5% bovine serum), and count the cells using trypan blue. Viability above 90% is acceptable. Seed cells in DMEM medium (0.5% bovine serum) at a density of 10,000 cells per well, 100 μL per well, in a 96 well microtiter plate. Incubate seeded cells in 5% CO2 at 37° C. for about 40 hours.
1. Check seeded cells for contamination using an inverted microscope. Dilute drug stock (10 mg/mL in DMSO) 1:10 in DMEM medium, then transfer 5 μL to a test well for a final drug dilution of 1:200 and a final DMSO concentration of 1%. Control wells receive DMSO alone. Incubate in 5% CO2 at 37° C. for one hour.
2. Prepare EGF ligand: dilute stock EGF in DMEM so that upon transfer of 10 μL dilute EGF (1:12 dilution), 25 nM final concentration is attained.
3. Prepare fresh 10 mL HNTG* sufficient for 100 μL per well wherein HNTG* comprises: HNTG stock (2.0 mL), milli-Q H2O (7.3 mL), EDTA, 100 mM, pH 7.0 (0.5 mL), Na3VO4 0.5 M (0.1 mL) and Na4(P2O7), 0.2 M (0.1 mL).
5. After two hours incubation with drug, add prepared EGF ligand to cells, 10 μL per well, to yield a final concentration of 25 nM. Control wells receive DMEM alone. Incubate, shaking, at room temperature, for 5 minutes.
6. Remove drug, EGF, and DMEM. Wash cells twice with PBS. Transfer HNTG* to cells, 100 μL per well. Place on ice for 5 minutes. […]
On the technique in general: In an ELISA, binding on a coated surface is turned into a signal by an enzyme label.

T1 sequence (P35918 20-1345): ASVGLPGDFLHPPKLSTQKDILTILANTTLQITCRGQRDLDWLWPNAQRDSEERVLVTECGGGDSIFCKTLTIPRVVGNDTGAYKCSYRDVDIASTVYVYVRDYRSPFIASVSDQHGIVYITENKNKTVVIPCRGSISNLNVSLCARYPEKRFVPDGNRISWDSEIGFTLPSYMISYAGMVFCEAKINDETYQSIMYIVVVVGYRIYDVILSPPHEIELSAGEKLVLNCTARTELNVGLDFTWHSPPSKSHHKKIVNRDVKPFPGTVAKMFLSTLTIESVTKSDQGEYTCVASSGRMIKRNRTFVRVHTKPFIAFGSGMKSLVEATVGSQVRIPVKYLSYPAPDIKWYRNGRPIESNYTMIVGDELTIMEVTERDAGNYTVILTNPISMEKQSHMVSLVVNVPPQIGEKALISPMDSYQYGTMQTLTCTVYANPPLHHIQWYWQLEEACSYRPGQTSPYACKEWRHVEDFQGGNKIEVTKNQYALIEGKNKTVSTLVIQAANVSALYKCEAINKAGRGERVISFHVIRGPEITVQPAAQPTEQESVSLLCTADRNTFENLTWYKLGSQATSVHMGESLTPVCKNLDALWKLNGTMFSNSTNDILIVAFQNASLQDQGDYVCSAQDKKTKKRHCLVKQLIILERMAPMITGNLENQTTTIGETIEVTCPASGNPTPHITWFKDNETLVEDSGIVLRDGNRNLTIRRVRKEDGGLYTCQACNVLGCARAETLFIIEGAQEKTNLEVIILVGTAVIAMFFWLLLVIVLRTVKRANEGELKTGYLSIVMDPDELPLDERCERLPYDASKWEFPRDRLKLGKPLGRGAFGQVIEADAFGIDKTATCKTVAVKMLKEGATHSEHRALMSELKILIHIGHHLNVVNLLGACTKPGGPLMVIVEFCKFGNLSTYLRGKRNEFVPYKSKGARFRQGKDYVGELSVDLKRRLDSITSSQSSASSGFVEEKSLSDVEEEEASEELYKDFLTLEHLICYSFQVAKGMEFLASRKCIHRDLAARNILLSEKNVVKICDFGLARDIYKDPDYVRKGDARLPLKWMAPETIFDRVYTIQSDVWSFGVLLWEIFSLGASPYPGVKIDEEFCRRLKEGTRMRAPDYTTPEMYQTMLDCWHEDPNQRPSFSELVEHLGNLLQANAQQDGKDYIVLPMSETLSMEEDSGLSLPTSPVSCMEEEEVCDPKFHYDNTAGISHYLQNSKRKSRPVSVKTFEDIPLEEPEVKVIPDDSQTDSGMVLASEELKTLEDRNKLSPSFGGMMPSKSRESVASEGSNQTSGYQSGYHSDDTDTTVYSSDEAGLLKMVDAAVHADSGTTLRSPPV

As a reminder, the IC50 is the concentration needed to halve the response being measured. Higher therefore signals lower potency. Consider `Cc1cc(C)c(C=C2C(=O)Nc3ncccc32)[nH]1` [3-(3,5-dimethyl-1H-pyrrol-2-ylmethylene)-1,3-dihydro-pyrrolo[2,3-b]pyridin-2-one], for which the values for the 50% inhibitory concentration (IC50) against FLK-1 receptor and on human EGF-R were 2.06 µM and over 100 µM, respectively.

For the compound `O=C1Nc2ncccc2C1=Cc1cnc[nH]1` [3-(3H-imidazol-4-ylmethylene)-1,3-dihydro-pyrrolo[2,3-b]pyridin-2-one], the IC50 against FLK-1 receptor is 17.6 µM; at human EGF-R it was over 50 µM.

Take `Cc1[nH]c(C=C2C(=O)Nc3ncccc32)c(C)c1CCC(=O)O` [3-[2,4-dimethyl-5-(2-oxo-1,2-dihydro-pyrrolo[2,3-b]pyridin-3-ylidenemethyl)-1H-pyrrol-3-yl]-propionic acid]: the IC50 on FLK-1 receptor is 0.15 µM; against human EGF-R it was over 50 µM.

Regarding `Cc1c(CCC(=O)O)c[nH]c1C=C1C(=O)Nc2ncccc21` [3-[4-methyl-5-(2-oxo-1,2-dihydro-pyrrolo[2,3-b]pyridin-3-ylidenemethyl)-1H-pyrrol-3-yl]-propionic acid], the values for the IC50 against FLK-1 receptor and against human EGF-R were 0.96 µM and over 25 µM, respectively.

(Values after US6849641B1, “Azaindole tyrosine kinase inhibitors” (Sugen, Inc., priority 1997, dated 2005).)
